From patent US6469030B2, “Methods for the treatment and prevention of ileus” (Adolor Corporation, priority 1999, dated 2002)

Legend:
[1] = biological target: mu opioid receptors (Homo sapiens, UniProt P35372); settings: opioid receptor binding assays; cited from earlier work
[2] = system: patients undergoing partial colectomy or simple or radical hysterectomy surgical procedures; assay: Phase II clinical study versus placebo in patients after abdominal surgery (post-surgical ileus); type: in vivo, humans
Description: A 78 patient Phase II clinical study was conducted which compared two doses (2 mg and 12 mg) of the compound of formula (II) versus placebo in patients undergoing partial colectomy or simple or radical hysterectomy surgical procedures. The results of this study are set forth in the following Tables 1 to 4 and are depicted graphically in FIGS. 1 to 5.
The time to first flatus was reduced by 15 hours; all other measures were reduced by 24 hours or more. […] In particular, none of the patients receiving the higher dose of the compound of formula (II) experienced post-surgical vomiting compared to 23% in the placebo control group (P<0.03). Twenty seven percent of the patients receiving the higher dose of compound (II) experienced clinically relevant post- surgical nausea compared to 63% of the placebo control group (P=0.003).

[3] = Solubility in water; type: physicochemical; settings: except at low or high pH conditions
Description: Zwitterionic character may be inherent to the compound, and may impart desirable properties such as poor systemic absorption and sustained local affect on the gut following oral administration.

Sequence of mu opioid receptors (P35372 whole entry): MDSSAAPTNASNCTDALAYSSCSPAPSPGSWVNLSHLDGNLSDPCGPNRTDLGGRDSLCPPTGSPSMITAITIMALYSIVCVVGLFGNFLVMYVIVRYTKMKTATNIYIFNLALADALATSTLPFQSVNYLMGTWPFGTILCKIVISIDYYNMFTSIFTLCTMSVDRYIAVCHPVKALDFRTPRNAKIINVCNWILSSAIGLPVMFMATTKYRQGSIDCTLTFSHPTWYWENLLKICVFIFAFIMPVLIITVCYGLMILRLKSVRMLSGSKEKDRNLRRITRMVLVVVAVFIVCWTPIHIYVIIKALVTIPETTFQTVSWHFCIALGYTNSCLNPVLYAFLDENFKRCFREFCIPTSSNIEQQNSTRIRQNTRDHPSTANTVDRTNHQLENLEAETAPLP

## C[C@H]1CN(C[C@H](Cc2ccccc2)C(=O)NCC(=O)O)CCC1(C)c1cccc(O)c1 (single isomer, unassigned; (+)) [compound of formula (II), (+)-Z—NHCH2C(O)OH]
[1]
  opioid receptor binding preference: preferential binding to mu opioid receptors
[2]; higher dose
  overall adverse effects compared with placebo-treated group: fewer overall adverse effects
[2]; higher dose versus placebo
  reduction of all other measures (first bowel movement, solid diet, ready for discharge, discharge): ≥ 24 h
  reduction of time to first flatus: 15 h
[2]; higher dose, 23% in the placebo control group (P<0.03)
  patients experiencing post-surgical vomiting: none
[2]; higher dose, 63% of the placebo control group (P=0.003)
  patients experiencing clinically relevant post-surgical nausea: Twenty seven
[2]; patients of the trial
  serious adverse side effects judged related to the compound: No patients experienced serious adverse side effects
[2]; patients receiving systemic narcotics for post-surgical pain
  effect on beneficial analgesic effects of systemic narcotics: did not reduce the beneficial analgesic effects
[3]
  solubility in water: low solubility in water
